Experimental data published in ChEMBL document CHEMBL1130566, “A nonpeptidic agonist ligand of the human C5a receptor: Synthesis, binding affinity optimization and functional characterization” (Bioorg Med Chem Lett, 1997).

Columns and labels:
[1] = target: T1, C5a anaphylatoxin chemotactic receptor 1 (Homo sapiens) (UniProt P21730); test: Inhibition of [125I]C5a binding to C5a anaphylatoxin chemotactic receptor of human neutrophil membrane preparations at 30 uM.
T1 sequence (whole entry): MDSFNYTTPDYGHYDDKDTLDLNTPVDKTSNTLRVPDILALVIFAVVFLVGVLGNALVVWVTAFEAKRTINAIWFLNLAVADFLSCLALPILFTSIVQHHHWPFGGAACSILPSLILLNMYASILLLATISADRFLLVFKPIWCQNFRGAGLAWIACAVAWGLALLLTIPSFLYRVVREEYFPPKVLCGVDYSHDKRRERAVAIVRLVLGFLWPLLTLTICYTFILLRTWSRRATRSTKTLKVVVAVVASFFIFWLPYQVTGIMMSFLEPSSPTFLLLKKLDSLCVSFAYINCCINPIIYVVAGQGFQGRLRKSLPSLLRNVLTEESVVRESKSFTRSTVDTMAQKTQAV

[2] = target: T2, C5a anaphylatoxin chemotactic receptor 1 (Homo sapiens, UniProt P21730); test: Tested for the ability to compete with [125I]-CO13 ([125I]-Y-F-K-A-Cha-G-L-dF-R) for binding to C5a anaphylatoxin chemotactic receptor from human neutrophil membrane preparations
T2 sequence (P21730 whole entry): T1 sequence (whole entry)

[3] = target: T1, C5a anaphylatoxin chemotactic receptor 1 (Homo sapiens); test: Tested for the ability to compete with [125I]-CO13 [125I]-Y-F-K-A-Cha-G-L-dF-R) for binding to C5a anaphylatoxin chemotactic receptor of human neutrophil membrane preparations at 30 uM concentration
[4] = target: T1, C5a anaphylatoxin chemotactic receptor 1 (Homo sapiens); test: Tested for the ability to compete with [125I]-CO13 [125I]-Y-F-K-A-Cha-G-L-dF-R) for binding to C5a anaphylatoxin chemotactic receptor of human neutrophil membrane preparations; conditions: concentration not given here
[5] = target: T2, C5a anaphylatoxin chemotactic receptor 1; test: Tested for its ability to compete with [125I]C5a for binding to C5a anaphylatoxin chemotactic receptor of human neutrophil membrane preparations
[6] = target: T1, C5a anaphylatoxin chemotactic receptor 1 (Homo sapiens); test: Tested for […] to evaluate its ability to block C5a induced myeloperoxide (MPO release from neutrophils (for antagonists) or induce MPO release (for agonists)
[7] = target: T2, C5a anaphylatoxin chemotactic receptor 1; test: Tested for the its ability to compete with [125I]-CO13 [125I]-Y-F-K-A-Cha-G-L-dF-R) for binding to C5a anaphylatoxin chemotactic receptor of human neutrophil membrane preparations
[8] = target: T1, C5a anaphylatoxin chemotactic receptor 1 (Homo sapiens); test: Tested for the ability to compete with [125I]C5a for binding to human C5a anaphylatoxin chemotactic receptor of human neutrophil membrane preparations at 30 uM concentration

## CC(C)[C@H](C(=O)N1CCC2(CCc3ccccc32)CC1)N1C(=O)N[C@H](CCCN=C(N)N)C1=O
[1]
  inhibition: 70%
[2]
  IC50: 1200 nM

## N=C(N)NCCC[C@H]1NC(=O)N([C@H](CC2CCCCC2)C(=O)N2CCC3(CC2)CC(=O)c2ccccc23)C1=O
[1]
  inhibition: 58%
[2]
  IC50: 1500 nM

## N=C(N)NCCC[C@H]1NC(=O)N([C@H](CC2CCC(C3CCCCC3)CC2)C(=O)N2CCC3(CCc4ccccc43)CC2)C1=O (stereo partly specified)
[1]
  inhibition: 26%
[2]
  IC50: 5000 nM

## CCC[C@H](C(=O)N1CCC2(CCc3ccccc32)CC1)N1C(=O)N[C@H](CCCN=C(N)N)C1=O
[1]
  inhibition: 63%
[2]
  IC50: 3000 nM

## CC(=O)OCC1(c2ccccc2)CCN(C(=O)[C@@H](CC2CCCCC2)N2C(=O)N[C@H](CCCN=C(N)N)C2=O)CC1
[3]
  inhibition: 48%
[1]
  inhibition: 35%

## N=C(N)NCCC[C@H]1NC(=O)N([C@@H](Cc2ccccc2)C(=O)N2CCC3(CCc4ccccc43)CC2)C1=O
[3]
  inhibition: 15%
[1]
  inhibition: 3%

## N=C(N)NCCC[C@H]1NC(=O)N([C@H](CC2CCCCC2)C(=O)N2CCN(c3ccccc3)CC2)C1=O
[1]
  inhibition: 66%
[2]
  IC50: 1000 nM

## CCCC[C@H](C(=O)N1CCC2(CCc3ccccc32)CC1)N1C(=O)N[C@H](CCCN=C(N)N)C1=O
[1]
  inhibition: 20%
[4]
  inhibition: 54%

## N=C(N)NCCC[C@H]1NC(=O)N([C@H](Cc2ccc(F)cc2)C(=O)N2CCC3(CCc4ccccc43)CC2)C1=O
[1]
  inhibition: 75%
[2]
  IC50: 230 nM

## N=C(N)NCCC[C@H]1NC(=O)N([C@H](CC(=O)N2CCCCC2)C(=O)N2CCC3(CCc4ccccc43)CC2)C1=O
[3]
  inhibition: 52%
[1]
  inhibition: 26%

## N=C(N)NCCC[C@H]1NC(=O)N(C(CCc2ccccc2)C(=O)N2CCC3(CCc4ccccc43)CC2)C1=O (stereo partly specified)
[1]
  inhibition: 46%
[2]
  IC50: 3000 nM

## Cc1ccc(N2CCN(C(=O)[C@@H](CC3CCCCC3)N3C(=O)N[C@H](CCCN=C(N)N)C3=O)CC2)c(C)c1
[5]
  IC50: 300 nM
[6]
  Release: 90%
[2]
  IC50: 60 nM

## N=C(N)NCCCC[C@H]1NC(=O)N([C@H](CC2CCCCC2)C(=O)N2CCC3(CCc4ccccc43)CC2)C1=O
[2]
  IC50: 300 nM

## NCCCC[C@H]1NC(=O)N([C@H](CC2CCCCC2)C(=O)N2CCC3(CCc4ccccc43)CC2)C1=O
[2]
  IC50: 4000 nM

## N=C(N)NCCC[C@H]1NC(=O)N([C@H](Cc2ccccc2)C(=O)N2CCC3(CCc4ccccc43)CC2)C1=O
[5]
  IC50: 8000 nM
[2]
  IC50: 800 nM

## CC(O)[C@H](C(=O)N1CCC2(CCc3ccccc32)CC1)N1C(=O)N[C@H](CCCN=C(N)N)C1=O (stereo partly specified)
[3]
  inhibition: 57%
[1]
  inhibition: 14%

## N=C(N)NCCC[C@H]1NC(=O)N([C@H](Cc2ccc3ccccc3c2)C(=O)N2CCC3(CCc4ccccc43)CC2)C1=O
[1]
  inhibition: 67%
[2]
  IC50: 2000 nM

## N=C(N)NCCC[C@H]1NC(=O)N([C@H](CC2CCCCC2)C(=O)N2CCC3(C=Cc4ccccc43)CC2)C1=O
[5]
  IC50: 1500 nM
[2]
  IC50: 300 nM

## N=C(N)NCCC[C@H]1NC(=O)N([C@H](Cc2c[nH]c3ccccc23)C(=O)N2CCC3(CCc4ccccc43)CC2)C1=O
[5]
  IC50: 5000 nM
[2]
  IC50: 450 nM

## N=C(N)NCCC[C@H]1NC(=O)N([C@H](Cc2ccc(O)cc2)C(=O)N2CCC3(CCc4ccccc43)CC2)C1=O
[2]
  IC50: 4000 nM

## CC(C)C[C@H](C(=O)N1CCC2(CCc3ccccc32)CC1)N1C(=O)N[C@H](CCCN=C(N)N)C1=O
[5]
  IC50: 2000 nM
[6]
  Release: 10%
[2]
  IC50: 450 nM

## N=C(N)NCCC[C@H]1NC(=O)N([C@H](CC(=O)O)C(=O)N2CCC3(CCc4ccccc43)CC2)C1=O
[1]
  inhibition: 0%

## N=C(N)NCCC[C@H]1NC(=O)N([C@H](Cc2cccc3ccccc23)C(=O)N2CCC3(CCc4ccccc43)CC2)C1=O
[1]
  inhibition: 77%
[2]
  IC50: 11000 nM

## CSCC[C@H](C(=O)N1CCC2(CCc3ccccc32)CC1)N1C(=O)N[C@H](CCCN=C(N)N)C1=O
[1]
  inhibition: 57%
[2]
  IC50: 3400 nM

## CC[C@@H](C)[C@H](C(=O)N1CCC2(CCc3ccccc32)CC1)N1C(=O)N[C@H](CCCN=C(N)N)C1=O
[5]
  IC50: 1200 nM
[6]
  Release: 31%
[2]
  IC50: 200 nM

## Nc1ccc(C[C@H]2NC(=O)N([C@H](CC3CCCCC3)C(=O)N3CCC4(CCc5ccccc54)CC3)C2=O)cc1
[3]
  inhibition: 75%

## N=C(N)NCCC[C@H]1NC(=O)N([C@H](CC2CCCCC2)C(=O)N2CCC3(CCc4ccccc43)CC2)C1=O
[5]
  IC50: 300 nM
[6]
  Release: 86%
[2]
  IC50: 25 nM

## N=C(N)NCCC[C@H]1NC(=O)N([C@H](Cc2ccc(-c3ccccc3)cc2)C(=O)N2CCC3(CCc4ccccc43)CC2)C1=O
[7]
  IC50: 900 nM
[5]
  IC50: 2300 nM

## NC(=O)NCCC[C@H]1NC(=O)N([C@H](CC2CCCCC2)C(=O)N2CCC3(CCc4ccccc43)CC2)C1=O
[3]
  inhibition: 58%

## N=C(N)NCCC[C@@H]1NC(=O)N([C@H](Cc2ccccc2)C(=O)N2CCC3(CCc4ccccc43)CC2)C1=O
[1]
  inhibition: 39%
[2]
  IC50: 4000 nM

## N=C(N)NCCC[C@H]1NC(=O)N(C(Cc2ccccc2)C(=O)N2CCC3(CCc4ccccc43)CC2)C1=O (stereo partly specified)
[3]
  inhibition: 78%
[1]
  inhibition: 60%

## N=C(N)NCCC[C@H]1NC(=O)N([C@@H](C(=O)N2CCC3(CCc4ccccc43)CC2)C(c2ccccc2)c2ccccc2)C1=O
[8]
  inhibition: 75%

## Cc1cccc(C)c1N1CCN(C(=O)[C@@H](CC2CCCCC2)N2C(=O)N[C@H](CCCN=C(N)N)C2=O)CC1
[5]
  IC50: 220 nM
[6]
  Release: 78%
[2]
  IC50: 40 nM

## CC(C)c1ccccc1N1CCN(C(=O)[C@@H](CC2CCCCC2)N2C(=O)N[C@H](CCCN=C(N)N)C2=O)CC1
[3]
  inhibition: 14%

## Cc1ccccc1N1CCN(C(=O)[C@@H](CC2CCCCC2)N2C(=O)N[C@H](CCCN=C(N)N)C2=O)CC1
[5]
  IC50: 350 nM
[6]
  Release: 76%
[2]
  IC50: 40 nM

## N=C(N)NCCC[C@H]1NC(=O)N([C@H](CC2CCCCC2)C(=O)N2CCC(c3ccccc3)CC2)C1=O
[5]
  IC50: 400 nM
[6]
  Release: 88%
[2]
  IC50: 30 nM
